In this test the test system is rabbit platelet. As to the kind of experiment: Effect on 9,11-azo PGH2 induced aggregation of rabbit platelet in vitro. It is filed as cell-based. To be noted: Oryctolagus cuniculus, rabbit PRP, 9,11-azo PGH2 final 1.0 μM, 37° C., 2 minutes preincubation, read-out: IC50 (Inhibition concentration of platelet aggregation by 50%). The source says:
In the following tests, the used 9, 11-azo PGH2 and 9,11-methanoepoxy PGH2 (U46619) are characterized pharmacologically as TXA2 mimetic agents and widely used for evaluating TXA2 antagonism of test compounds (for example, vida The Journal of Pharmacology and Experimental Therapeutics Vol. 234, pp 435-441).
Test 1 (Effect on 9,11-azo PGH2 induced aggregation of rabbit platelet in vitro)
In the in vitro experiments, the blood was collected from the carotid artery of rabbits into plastic vessels containing 0.1 volume of 3.8% aqueous sodium citrate. Platelet rich plasma (PRP) was prepared by centrifugation at 150 g for 15 minutes. Platelet aggregation was investigated using the turbidometric method with an aggregometer (NKK HEMATRACER 1). To the 225 μl of PRP, 25 μl of test compound solution was added, and then stirred at 1000 rpm for 2 minutes at 37° C. To the solution, 5 μl of 9,11-azo PGH2 (final 1.0 μM) was added as an aggregating inducer. IC50 (Inhibition concentration of platelet aggregation by 50%) were graphically determined.

pIC50: −log10 of the molar value.

With `C[C@@H]1OC[C@H](C/C=C\CCCC(=O)O)[C@H](C=NNC(=O)Nc2ccccc2)O1` [Test compound 2], the pIC50 was 6.59.
